PubChem BioAssay AID328 (DTP/NCI, 2004)
Where “and” joins values, the source holds several entries; their conditions need not be identical. Equal values may be shown once. Toxic doses and inconclusive results are not listed.

System: BDF1 mice, P388 leukemia ip, median survival T/C
Assay: NCI In Vivo Anticancer Drug Screen. Data for tumor model P388 Leukemia (intraperitoneal) in B6D2F1 (BDF1) mice
Settings: endpoint: median survival time, higher = longer survival
Method: The antitumor activity of compounds was measured in mice bearing transplantable tumors. Survival or tumor size were measured and the results are expressed as the measurement made in the treated group (T) divided by the measurement made in the vehicle treated control group (C). The tumor model used in this assay is P388 Leukemia (intraperitoneal) in B6D2F1 (BDF1) mice

[1] = dose: 200.0 mg/kg/injection, schedule: Q01DX009 (ip), vehicle: saline with Tween-80
[2] = dose: 50.0 mg/kg/injection, schedule: Q01DX009 (ip), vehicle: saline with Tween-80
[3] = dose: 100.0 mg/kg/injection, schedule: Q01DX009 (ip), vehicle: saline with Tween-80
[4] = dose: 100.0 mg/kg/injection, schedule: Q04DX003 (ip), vehicle: Klucel (hydroxypropylcellulose) (HPC)
[5] = dose: 200.0 mg/kg/injection, schedule: Q04DX003 (ip), vehicle: Klucel (hydroxypropylcellulose) (HPC)
[6] = dose: 400.0 mg/kg/injection, schedule: Q04DX003 (ip), vehicle: Klucel (hydroxypropylcellulose) (HPC)
[7] = dose: 50.0 mg/kg/injection, schedule: Q01DX009 (ip), vehicle: saline
[8] = dose: 100.0 mg/kg/injection, schedule: Q01DX009 (ip), vehicle: saline
[9] = dose: 200.0 mg/kg/injection, schedule: Q01DX009 (ip), vehicle: saline
[10] = dose: 50.0 mg/kg/injection, schedule: Q04DX003 (ip), vehicle: water
[11] = dose: 100.0 mg/kg/injection, schedule: Q04DX003 (ip), vehicle: water

FC(F)(F)c1ccc2nc(CI)c(CI)nc2c1
T/C (dose: 1.37 mg/kg/injection, schedule: Q01DX009 (ip), vehicle: saline): 115 % of control
T/C (dose: 1.5 mg/kg/injection, schedule: Q01DX009 (ip), vehicle: Klucel (hydroxypropylcellulose) (HPC)): 105 % of control
T/C (dose: 2.05 mg/kg/injection, schedule: Q01DX009 (ip), vehicle: saline): 115 % of control
T/C (dose: 3.0 mg/kg/injection, schedule: Q01DX009 (ip), vehicle: Klucel (hydroxypropylcellulose) (HPC)): 105 % of control
T/C (dose: 6.0 mg/kg/injection, schedule: Q01DX009 (ip), vehicle: Klucel (hydroxypropylcellulose) (HPC)): 111 % of control
T/C (dose: 12.0 mg/kg/injection, schedule: Q01DX009 (ip), vehicle: Klucel (hydroxypropylcellulose) (HPC)): 122 % of control
T/C (dose: 12.0 mg/kg/injection, schedule: Q01DX009 (ip), vehicle: saline): 105 % of control
T/C (dose: 12.0 mg/kg/injection, schedule: Q04DX003 (ip), vehicle: Klucel (hydroxypropylcellulose) (HPC)): 118 % of control
T/C (dose: 12.5 mg/kg/injection, schedule: Q01DX009 (ip), vehicle: saline with Tween-80): 105 % of control
T/C (dose: 18.0 mg/kg/injection, schedule: Q01DX009 (ip), vehicle: saline): 100 % of control
T/C (dose: 24.0 mg/kg/injection, schedule: Q01DX009 (ip), vehicle: Klucel (hydroxypropylcellulose) (HPC)): 122 % of control
T/C (dose: 25.0 mg/kg/injection, schedule: Q04DX003 (ip), vehicle: Klucel (hydroxypropylcellulose) (HPC)): 109 % of control
T/C (dose: 27.0 mg/kg/injection, schedule: Q01DX009 (ip), vehicle: saline): 105 % of control
T/C (dose: 28.0 mg/kg/injection, schedule: Q01DX009 (ip), vehicle: saline): 100 % of control
T/C (dose: 40.0 mg/kg/injection, schedule: Q01DX009 (ip), vehicle: saline): 89 % of control
T/C (dose: 48.0 mg/kg/injection, schedule: Q01DX009 (ip), vehicle: Klucel (hydroxypropylcellulose) (HPC)): 122 % of control

Cc1ccc2c(c1O)NC(=O)C1CCCN1C2=O (stereo unspecified)
T/C (dose: 100.0 mg/kg/injection, schedule: Q04DX002 (ip), vehicle: saline with Tween-80): 99 % of control
T/C (dose: 200.0 mg/kg/injection, schedule: Q04DX002 (ip), vehicle: saline with Tween-80): 102 % of control
T/C (dose: 400.0 mg/kg/injection, schedule: Q04DX002 (ip), vehicle: saline with Tween-80): 101 % of control

N=C(N)c1ccc(Nc2ccc(C(=N)N)cc2)cc1
T/C (dose: 3.0 mg/kg/injection, schedule: Q01DX010 (ip), vehicle: saline): 100 % of control
T/C (dose: 6.0 mg/kg/injection, schedule: Q01DX010 (ip), vehicle: saline): 91 % of control and 95 % of control
T/C (dose: 12.0 mg/kg/injection, schedule: Q01DX010 (ip), vehicle: saline): 91 % of control and 100 % of control
T/C (dose: 24.0 mg/kg/injection, schedule: Q01DX010 (ip), vehicle: saline): 95 % of control

CC1=COC2CCCCC2O1 (stereo unspecified) (tested in a mixture with another compound)
T/C (dose: 100.0 mg/kg/injection, schedule: Q01DX009 (ip), vehicle: acetone): 104 % of control
T/C (dose: 200.0 mg/kg/injection, schedule: Q01DX009 (ip), vehicle: acetone): 96 % of control
T/C (dose: 400.0 mg/kg/injection, schedule: Q01DX009 (ip), vehicle: acetone): 96 % of control

Cc1ccc(C2(C(=O)O)CCCC2)cc1
T/C (dose: 65.0 mg/kg/injection, schedule: Q01DX009 (ip), vehicle: Klucel (hydroxypropylcellulose) (HPC)): 103 % of control
T/C (dose: 150.0 mg/kg/injection, schedule: Q01DX009 (ip), vehicle: Klucel (hydroxypropylcellulose) (HPC)): 94 % of control
T/C [1]: 91 % of control

CCCCOC(=S)Nc1ccccc1
T/C (dose: 50.0 mg/kg/injection, schedule: Q01DX009 (ip), vehicle: other): 100 % of control
T/C (dose: 100.0 mg/kg/injection, schedule: Q01DX009 (ip), vehicle: other): 99 % of control

O=[N+]([O-])c1ccc(-c2nnc3ncccn23)cc1
T/C [2]: 102 % of control
T/C [3]: 98 % of control
T/C [1]: 90 % of control

CC(C)(Cl)CNC(=O)c1ccc([N+](=O)[O-])cc1
T/C [4]: 91 % of control
T/C [5]: 104 % of control
T/C [6]: 100 % of control

Cc1c(Cl)cnc(N)c1Cl (tested in a mixture with another compound)
T/C [2]: 96 % of control
T/C [3]: 156 % of control
T/C [1]: 105 % of control

CN(C)C1CCc2ccccc2C1OC(=O)/C=C/c1ccccc1 (stereo unspecified)
T/C (dose: 25.0 mg/kg/injection, schedule: Q01DX009 (ip), vehicle: saline with Tween-80): 100 % of control
T/C [2]: 102 % of control
T/C [3]: 102 % of control

CS(=O)(=O)C1CCCCC1SC#N (stereo unspecified)
T/C [2]: 98 % of control
T/C [3]: 115 % of control
T/C [1]: 115 % of control

[I][Hg][CH2]C1OCCOC1[CH2][Hg][I] (stereo unspecified)
T/C [3]: 116 % of control
T/C [1]: 116 % of control

COC1=NCN=C2SC=C(N)N=C12
T/C (dose: 12.5 mg/kg/injection, schedule: Q01DX009 (ip), vehicle: saline): 100 % of control
T/C (dose: 25.0 mg/kg/injection, schedule: Q01DX009 (ip), vehicle: saline): 98 % of control
T/C [7]: 105 % of control

Cc1ccc(-c2nc3ccccc3c(=O)n2/N=C/c2cccc3ccccc23)cc1
T/C [2]: 90 % of control
T/C [3]: 89 % of control

CCOC(=O)C(CCC(=O)OC)C1=NC(C)(C)CC(C)O1 (stereo unspecified)
T/C (dose: 50.0 mg/kg/injection, schedule: Q01DX001 (ip), vehicle: saline sonified): 104 % of control
T/C (dose: 100.0 mg/kg/injection, schedule: Q01DX001 (ip), vehicle: saline sonified): 100 % of control
T/C (dose: 200.0 mg/kg/injection, schedule: Q01DX001 (ip), vehicle: saline sonified): 100 % of control

NC(=O)CC(N)c1nn[nH]n1 (stereo unspecified)
T/C [8]: 95 % of control
T/C [9]: 100 % of control
T/C (dose: 400.0 mg/kg/injection, schedule: Q01DX009 (ip), vehicle: saline): 90 % of control

FC(F)(F)c1nc[nH]c1C(F)(F)F
T/C (dose: 3.12 mg/kg/injection, schedule: Q01DX009 (ip), vehicle: water): 99 % of control
T/C (dose: 6.25 mg/kg/injection, schedule: Q01DX009 (ip), vehicle: water): 90 % of control
T/C (dose: 12.5 mg/kg/injection, schedule: Q01DX009 (ip), vehicle: water): 91 % of control
T/C (dose: 25.0 mg/kg/injection, schedule: Q01DX009 (ip), vehicle: water): 99 % of control
T/C (dose: 50.0 mg/kg/injection, schedule: Q01DX009 (ip), vehicle: water): 89 % of control
T/C [10]: 98 % of control
T/C [11]: 104 % of control

Nc1ccn(CC(=O)N2CCOCC2)c(=O)n1
T/C (dose: 25.0 mg/kg/injection, schedule: Q04DX003 (ip), vehicle: water): 106 % of control
T/C [10]: 103 % of control
T/C [11]: 89 % of control
T/C (dose: 200.0 mg/kg/injection, schedule: Q04DX003 (ip), vehicle: water): 103 % of control
T/C (dose: 400.0 mg/kg/injection, schedule: Q04DX003 (ip), vehicle: water): 94 % of control

C[Si](C)(C)C1CO1 (stereo unspecified)
T/C [2]: 106 % of control
T/C [3]: 106 % of control
T/C [1]: 102 % of control

CC(C)(C)OP(=O)(OC(C)(C)C)c1ccccc1
T/C [2]: 118 % of control
T/C [3]: 98 % of control

[O-][n+]1c(-c2ccccc2)c(C(O)c2ccccc2)nc2ccccc21 (stereo unspecified)
T/C (dose: 100.0 mg/kg/injection, schedule: Q01DX001 (ip), vehicle: saline with Tween-80): 105 % of control
T/C (dose: 200.0 mg/kg/injection, schedule: Q01DX001 (ip), vehicle: saline with Tween-80): 94 % of control
T/C (dose: 400.0 mg/kg/injection, schedule: Q01DX001 (ip), vehicle: saline with Tween-80): 96 % of control

COc1ccc2cc(Br)ccc2c1
T/C (dose: 100.0 mg/kg/injection, schedule: Q04DX003 (ip), vehicle: saline with Tween-80): 95 % of control
T/C (dose: 200.0 mg/kg/injection, schedule: Q04DX003 (ip), vehicle: saline with Tween-80): 109 % of control
T/C (dose: 400.0 mg/kg/injection, schedule: Q04DX003 (ip), vehicle: saline with Tween-80): 100 % of control

CC=C=C(C)CN
T/C [7]: 96 % of control
T/C [8]: 96 % of control
T/C [9]: 92 % of control

C=CC(C)(O)CCC1C(=C)CCC2C(C)(C)CCCC12C (stereo unspecified)
T/C (dose: 100.0 mg/kg/injection, schedule: Q01DX009 (ip), vehicle: Klucel (hydroxypropylcellulose) (HPC)): 90 % of control
T/C [4]: 95 % of control
T/C (dose: 200.0 mg/kg/injection, schedule: Q01DX009 (ip), vehicle: Klucel (hydroxypropylcellulose) (HPC)): 86 % of control
T/C [5]: 100 % of control
T/C (dose: 400.0 mg/kg/injection, schedule: Q01DX009 (ip), vehicle: Klucel (hydroxypropylcellulose) (HPC)): 95 % of control
T/C [6]: 95 % of control
